Earlier results in patent US20260257261A1, “BIOMIMETIC MULTIFUNCTIONAL LIGNOCELLULOSIC DEGRADABLE SORBENT FOR ENVIRONMENTAL REMEDIATION” (THE TEXAS A&M UNIVERSITY SYSTEM, priority 2022, published 2026).

Details: previous studies by Mahapatra et al. and others

| SMILES | toxicity relative to PFOA (C8) |
| --- | --- |
| O=C(O)C(F)(F)C(F)(F)C(F)(F)F [PFBA] | much less toxic |
| O=C(O)C(F)(F)C(F)(F)C(F)(F)C(F)(F)C(F)(F)F [PFHA, perfluorohexanoic acid] | much less toxic |
| O=C(O)C(F)(F)C(F)(F)C(F)(F)C(F)(F)F [PUPA] | much less toxic |
